According to patent publication US20130310374A1, “Substituted Imidazoquinoline Derivatives” (PIRAMAL ENTERPRISES LIMITED`, priority 2010, published 2013):

Tests used:
KU812/SR = test: Cytotoxicity propidium iodide assay, KU812/SR; assay type: cell-based; conditions: Homo sapiens; KU812/SR (CML), 48 hours treatment; read-out: IC50 Values in μM, C6c
Protocol: (§1) The assay was designed as in the reference, Anticancer Drugs, 2002, 13, 1-8, the disclosure of which is incorporated herein by reference for the teaching of the assay.
(§2) Cells from cell lines (ATCC) as mentioned in the table given below were seeded at a density of 3000 cells/well in a white opaque 96-well plate. Following incubation at 37° C./5% CO2 for a period of 18-24 hours, the cells were treated with various concentrations (stock solution was prepared in DMSO and subsequent dilutions were made in media as per ATCC guidelines) of the compounds of the present invention for a period of 48 hours. At the end of treatment, the culture medium was discarded, the cells were washed with 1×PBS and 200 μL of […] propidium iodide was added to each well. The plates were frozen at 70° C. overnight. For analysis, the plates were warmed to RT, allowed to thaw and were read in PoleStar fluorimeter with the fluorescence setting. The percentage of viable cells in the non-treated set of wells was considered to be 100 and the percentage viability following treatment was calculated accordingly. IC50 values were calculated from graphs plotted using these percentages. IC50 values for certain compounds of present invention are depicted in Table 1 and % Inhibition of certain compounds of present invention are depicted in Table 2.

T315I = test: Cytotoxicity propidium iodide assay, T315I; assay type: cell-based; conditions: T315I (CML), 48 hours treatment; read-out: IC50 Values in μM, C6b
Protocol: as §1, §2

PC3 = test: Cytotoxicity propidium iodide assay, PC3; assay type: cell-based, human; conditions: Homo sapiens, PC-3; for IC50: PC3 (prostate), 48 hours treatment, read-out: IC50 Values in μM, C2a
Protocol: as §1, §2

KCL22 = test: Cytotoxicity propidium iodide assay, KCL22; assay type: cell-based; conditions: Homo sapiens, KCL-22; KCL22 (CML), 48 hours treatment; read-out: IC50 Values in μM, C6f
Protocol: as §1
as §2, with “The plates were frozen at 70° C. overnight.” left out

K562 = test: Cytotoxicity propidium iodide assay, K562; assay type: cell-based; conditions: Homo sapiens; K562 (CML), 48 hours treatment; read-out: IC50 Values in μM, C6a
Protocol: as §1, §2

KCL22/SR = test: Cytotoxicity propidium iodide assay, KCL22/SR; assay type: cell-based; conditions: Homo sapiens, KCL-22; KCL22/SR (CML), 48 hours treatment; read-out: IC50 Values in μM, C6e
Protocol: as §1, §2

A2780 = test: Cytotoxicity propidium iodide assay, A2780; assay type: cell-based; conditions: Homo sapiens; for IC50: A2780 (ovarian), 48 hours treatment, read-out: IC50 Values in μM, C1a
Protocol: as §1, §2

TNF-α = test: Anti-CD3 mAb and anti-CD28 mAb-induced cytokine production assay, TNF-α; assay type: cell-based; conditions: Homo sapiens, hPBMC, anti-CD3/anti-CD28, 18 hours
Protocol: (§3) Anti-CD3 mAb and Anti-CD28 mAb-Induced Cytokine Production Assay
(§4) Preparation of anti-CD3/anti-CD28 coated plates: 96 well plates were coated with goat anti-mouse IgG, Fc (Millipore) at a concentration of 16.5 μg/mL in coating buffer ([…] NaHCO3, 3.56 g Na2CO3, pH 9.5). Following overnight incubation at 4° C., the plates were washed and then incubated with anti-CD3 (3.5 μg/mL; R&D Systems) and anti-CD28 (35 ng/mL; R&D Systems) cocktail for 3 hours. Subsequently, the plates were washed, and used for hPBMC stimulation.
(§5) hPBMC stimulation: Peripheral blood was collected from normal healthy volunteers after informed consent. Peripheral blood mononuclear cells (hPBMC) were harvested using Ficoll-Hypaque density gradient centrifugation (1.077 g/mL; Sigma Aldrich). hPBMCs were resuspended in RPMI 1640 culture medium (Gibco BRL, Pasley, UK) containing 10% FCS, 100 U/mL penicillin (Sigma Chemical Co. St Louis, Mo.) and […] streptomycin (Sigma Chemical Co. St Louis, Mo.) at 1.25×10^6 cells/mL of assay medium. 2.5×10^5 hPBMCs were added per well of 96-well plate coated with or without anti-CD3/anti-CD28 mAbs. Simultaneously, 0.025 μM of compounds of the present invention or 0.5% DMSO (vehicle control) were added to appropriate wells. The cells were then incubated for 18 hours at 37° C., 5% CO2 following which supernatants were collected, stored at […] and assayed later for TNF-α, IL-6 and IFN-γ by ELISA (OptiEIA ELISA sets; BD Biosciences). In every experiment, each condition was run in triplicate wells. In all experiments, the toxicity of test compounds was ascertained, in parallel, using the MTS (3-(4,5-dimethylthiazol-2-yl)-5-(3-carboxymethoxyphenyl)-2-(4-sulfonyl)-2H-tetrazolium) assay as described in Am. J. Physiol. Cell Physiol., 2003, 285, C813-C822.

IFN-γ [1] = test: Anti-CD3 mAb and anti-CD28 mAb-induced cytokine production assay, IFN-γ; assay type: cell-based; conditions: Homo sapiens, hPBMC, anti-CD3/anti-CD28, 18 hours
Protocol: as §3, §4, §5

hPBMC [2] = test: MTS toxicity assay in parallel to anti-CD3/anti-CD28 cytokine assay; assay type: cell-based, human; conditions: anti-CD3/anti-CD28 experiment
Protocol: as §5

hPBMC [3] = test: MTS toxicity assay in parallel to Con-A-induced IFN-γ assay; assay type: cell-based, human; conditions: Con-A experiment
Protocol: (§6) Peripheral blood was collected from normal healthy volunteers after informed consent. Peripheral blood mononuclear cells (hPBMC) were harvested using Ficoll-Hypaque density gradient centrifugation (1.077 g/mL; Sigma Aldrich). hPBMCs were resuspended in RPMI 1640 culture medium (Gibco BRL, Pasley, UK) containing 10% FCS, 100 U/mL penicillin (Sigma Chemical Co. St Louis, Mo.) and […] streptomycin (Sigma Chemical Co. St Louis, Mo.) at 1×10^6 cells/mL. 1×10^5 hPBMCs/well were pre-treated with 0.025 μM of compounds of present invention or 0.5% DMSO (vehicle control) for 30 minutes at 37° C. Subsequently, these cells were stimulated with 1 μg/mL concanavalin A (Sigma Chemical Co., St. Louis, Mo.). Following 18 hours of incubation at 37° C., supernatants were collected and stored at −70° C. until assayed for human IFN-γ by ELISA as described by the manufacturer (OptiEIA ELISA sets, BD BioSciences). In every experiment, cyclosporin (1 μM) was used as a positive control for inhibiting induced IFN-γ production. In all experiments, the toxicity of test compounds was ascertained, in parallel, using the MTS (3-(4,5-dimethylthiazol-2-yl)-5-(3-carboxymethoxyphenyl)-2-(4-sulfonyl)-2H-tetrazolium) assay as described in Am. J. Physiol. Cell Physiol., 2003, 285, C813-C822.

IFN-γ [4] = test: Con-A-induced IFN-γ production from hPBMC; assay type: cell-based; conditions: Homo sapiens, concanavalin A 1 μg/mL, 18 hours
Protocol: Con-A-Induced IFN-γ Production from hPBMC
as §6

IL-6 = test: Anti-CD3 mAb and anti-CD28 mAb-induced cytokine production assay, IL-6; assay type: cell-based; conditions: Homo sapiens, hPBMC, anti-CD3/anti-CD28, 18 hours
Protocol: as §3, §4, §5

LN229 = test: Cytotoxicity propidium iodide assay, LN229; assay type: cell-based; conditions: Homo sapiens, LN-229; LN229 (glioblastoma), 48 hours treatment; read-out: IC50 Values in μM, C5a
Protocol: as §1, §2

BT 549 = test: Cytotoxicity propidium iodide assay, BT 549; assay type: cell-based; conditions: Homo sapiens; BT 549 (breast), 48 hours treatment; read-out: IC50 Values in μM, C3c
Protocol: as §1, §2

U 87 MG = test: Cytotoxicity propidium iodide assay, U 87 MG; assay type: cell-based; conditions: Homo sapiens; U 87 MG (glioblastoma), 48 hours treatment; read-out: IC50 Values in μM, C5c
Protocol: as §1
as §2, with “The plates were frozen at 70° C. overnight.” left out

LN18 = test: Cytotoxicity propidium iodide assay, LN18; assay type: cell-based; conditions: Homo sapiens, LN-18; LN18 (glioblastoma), 48 hours treatment; read-out: IC50 Values in μM, C5b
Protocol: as §1, §2

AsPC 1 = test: Cytotoxicity propidium iodide assay, AsPC 1; assay type: cell-based; conditions: Homo sapiens, ASPC1; AsPC 1 (pancreatic), 48 hours treatment; read-out: IC50 Values in μM, C4b
Protocol: as §1
as §2, with “The plates were frozen at 70° C. overnight.” left out

MDA MB 231 = test: Cytotoxicity propidium iodide assay, MDA MB 231; assay type: cell-based; conditions: Homo sapiens; MDA MB 231 (breast), 48 hours treatment; read-out: IC50 Values in μM, C3a
Protocol: as §1
as §2, with “The plates were frozen at 70° C. overnight.” left out

MCF7 = test: Cytotoxicity propidium iodide assay, MCF7; assay type: cell-based; conditions: Homo sapiens; MCF7 (breast), 48 hours treatment; read-out: IC50 Values in μM, C3d
Protocol: as §1, §2

BxPC3 = test: Cytotoxicity propidium iodide assay, BxPC3; assay type: cell-based; conditions: Homo sapiens, BXPC-3; BxPC3 (pancreatic), 48 hours treatment; read-out: IC50 Values in μM, C4c
Protocol: as §1, §2

MDA MB 468 = test: Cytotoxicity propidium iodide assay, MDA MB 468; assay type: cell-based; conditions: Homo sapiens; MDA MB 468 (breast), 48 hours treatment; read-out: IC50 Values in μM, C3b
Protocol: as §1, §2

PI3K/mTOR pathway = test: Western blot analysis in A2780 ovarian cancer cell line; assay type: cell-based; conditions: A2780 cells treated for 1 hour; FIG. 1A-1E
Protocol: Protocol for Western Blot Analysis
A2780 ovarian cancer cell line (ATCC) were grown to approximately 70% confluence in 100-mm tissue culture dishes and then treated for 1 hour with […] compounds of Example 2, 3, 5, 16, 19, 55 and 59. Total protein was extracted using cell lysis buffer (NaCl […], NP40 0.67%, Tris-Cl, pH 7.5, 67 mM) containing protease inhibitors and phosphatase inhibitors (Beta-glycerol phosphate 40 mM, DTT 1 mM, NaF 0.4 mM, Sodium-Orthovanadate 0.4 mM) at 4° C. for 1 hour. Cell lysates were then centrifuged at 2×10^4 g for 10 minutes at 4° C., and the protein concentration of the supernatant was quantified using the Bradford's method (BioRad, USA). For SDS-PAGE, 50 μg protein was loaded in SDS-PAGE, transferred to a polyvinylidene difluoride membrane (Bio-Rad, USA) and blocked with 5 mL buffer [5% skim milk and 0.1% Tween] for 1 hour 30 minutes. Membrane were probed with primary antibody (all primary antibodies were from cell signaling with 1:1000 in TBST solution) of respective protein at 4° C. overnight. Peroxidase-labeled anti-rabbit or anti-mouse antibodies (Santacruze, USA) were used as the secondary antibody. Actin and respective whole protein levels were used as the control for protein loading. Protein antigens were detected using Chemiluminescent Substrate (Thermo scientific, USA) and exposed on Kodak station.

Row | Compound | IC50 (KU812/SR) [µM] | IC50 (T315I) [µM] | IC50 (PC3) [µM] | IC50 (K562) [µM] | IC50 (KCL22/SR) [µM] | IC50 (A2780) [µM] | IC50 (LN229) [µM] | IC50 (BT 549) [µM] | IC50 (U 87 MG) [µM] | IC50 (LN18) [µM] | also measured
1 | Cn1c(=O)n(-c2ccc(C(C)(C)C#N)nc2)c2c3cc(-c4cccnc4)ccc3ncc21 [Example 1, 2-Methyl-2-(5-(3-methyl-2-oxo-8-(pyridin-3-yl)-2,3-dihydro-1H-imidazo[4,5-c]quinolin-1-yl)pyridin-2-yl)propanenitrile] | 0.96 | 3.3 | 0.22 | 0.9 | 0.62 | 0.4 | – | – | – | – | IC50 (KCL22): 1.18 µM
2 | Cn1c(=O)n(-c2ccc(C(F)(F)F)nc2)c2c3cc(-c4ccc(F)nc4F)ccc3ncc21 [Example 57, 8-(2,6-Difluoropyridin-3-yl)-3-methyl-1-(6-(trifluoromethyl)pyridin-3-yl)-1H-imidazo [4,5-c]quinolin-2(3H)-one] | – | – | – | – | – | – | – | – | – | – | inhibition at 0.025 µM (TNF-α): 80%; inhibition at 0.025 µM (IFN-γ [1]): 88%; % Toxicity at 0.025 μM (hPBMC [2]): 14%; % Toxicity at 0.025 μM (hPBMC [3]): 14%; inhibition at 0.025 µM (IFN-γ [4]): 88%; inhibition at 0.025 µM (IL-6): 94%
3 | Cn1c(=O)n(-c2ccc(Cl)nc2Cl)c2c3cc(-c4cccnc4)ccc3ncc21 [Example 62, 1-(2,6-Dichloropyridin-3-yl)-3-methyl-8-(pyridin-3-yl)-1H-imidazo[4,5-c]quinolin-2(3H)-one] | 0.84 | – | – | 0.144 | 0.62 | – | 1.03 | 1.5 | 9.92 | 1.08 | inhibition at 1 µM (PC3; PC3, 1 μM, 48 hours, read-out: % Inhibition at 1 μM, C2a): 28%; inhibition at 1 µM (A2780; A2780, 1 μM, 48 hours, read-out: % Inhibition at 1 μM, C1a): 69%
4 | Cn1c(=O)n(-c2ccc(C(F)(F)F)nc2)c2c3cc(-c4cnc(N)c(C(F)(F)F)c4)ccc3ncc21 [Example 55, 8-(6-Amino-5-(trifluoromethyl)pyridin-3-yl)-3-methyl-1-(6-(trifluoromethyl)pyridin-3-yl)-1H-imidazo[4,5-c]quinolin-2(3H)-one] | 0.23 | 0.19 | 1.6 | 0.056 | 0.06 | 0.009 | 0.096 | 0.17 | 7.92 | 0.282 | IC50 (AsPC 1): 0.04 µM; IC50 (MDA MB 231): 0.035 µM; IC50 (MCF7): 0.06 µM; IC50 (BxPC3): 0.027 µM; IC50 (MDA MB 468): 0.075 µM; Akt, S6 and 4EBP1 phosphorylation (Western blot) (PI3K/mTOR pathway): inhibit Akt, S6 and 4EBP1 phosphorylation
